# Results as given in ChEMBL document CHEMBL1201862, “PubChem BioAssay data set” (2004).
#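 Grown in 96-well plates, cells were treated for 48 hours with each compound at five concentrations. Insufficient inhibition: endpoint recorded as highest concentration tested. GI50 = concentration required for 50% inhibition of growth.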 Activity calls are given as the source filed them. No stated cut-off is given here; in the data, active = GI50 up to about 1.1 µM and inactive = higher.
# Experiments:
# Assay in all cases: growth of human tumour cells (NCI), 48 h
# [1] = test system: LOX IMVI
# [2] = test system: KM-20L2
# [3] = test system: SN12C
# [4] = test system: HCT-116
# [5] = test system: 786-0
# [6] = test system: EKVX
# [7] = test system: DMS-273
# [8] = test system: SF-539
# [9] = test system: HCT-15
# [10] = test system: OVCAR-8
# [11] = test system: HT-29
# [12] = test system: KM12
# [13] = test system: SW-620
# [14] = test system: XF498
# [15] = test system: A498
# [16] = test system: NCI-H522
# [17] = test system: SF-268
# [18] = test system: LXFL 529
# [19] = test system: M14
# [20] = test system: OVCAR-4
# [21] = test system: SK-MEL-2
# [22] = test system: OVCAR-5
# [23] = test system: HCC 2998
# [24] = test system: SK-OV-3
# [25] = test system: UACC-62
# [26] = test system: CAKI-1
# [27] = test system: SK-MEL-5
# [28] = test system: UO-31
# [29] = test system: IGROV-1
# [30] = test system: A549
# [31] = test system: NCI-H23
# [32] = test system: Malme-3M
# [33] = test system: SNB-19
# [34] = test system: RXF 393
# [35] = test system: RPMI-8226
# [36] = test system: OVCAR-3
# [37] = test system: COLO 205
# [38] = test system: SNB-75
# [39] = test system: TK-10
# [40] = test system: HOP-62
# [41] = test system: ACHN
# [42] = test system: NCI-H460
# [43] = test system: SK-MEL-28
# [44] = test system: K562
# [45] = test system: SNB-78
# [46] = test system: U-251
# [47] = test system: UACC-257
# [48] = test system: MOLT-4
# [49] = test system: HOP-18
# [50] = test system: HOP-92
# [51] = test system: NCI-H226
# [52] = test system: CCRF-CEM
# [53] = test system: M19-MEL
smiles,measurement,setting,value
NC(=O)c1ccccc1NC(=O)C(=O)C(C(=O)c1ccc2ccccc2c1)C1OC(=O)c2ccccc21 (stereo not drawn),GI50,[1],11.3 µM (inactive)
same,GI50,[2],28.3 µM (inactive)
same,GI50,[3],15.9 µM (inactive)
same,GI50,[4],9.71 µM (inactive)
same,GI50,[5],6.25 µM (inactive)
same,GI50,[6],26.5 µM (inactive)
same,GI50,[7],12.5 µM (inactive)
same,GI50,[8],4.6 µM (inactive)
same,GI50,[9],16.7 µM
same,GI50,[10],7.66 µM (inactive)
same,GI50,[11],27.8 µM (inactive)
same,GI50,[12],18.9 µM (inactive)
same,GI50,[13],8.24 µM (inactive)
same,GI50,[14],2.59 µM (inactive)
same,GI50,[15],> 100 µM (inactive)
same,GI50,[16],14 µM (inactive)
same,GI50,[17],4.48 µM (inactive)
same,GI50,[18],8.17 µM (inactive)
same,GI50,[19],14.3 µM (inactive)
same,GI50,[20],11.6 µM (inactive)
same,GI50,[21],14.8 µM (inactive)
same,GI50,[22],24 µM (inactive)
same,GI50,[23],7.1 µM (inactive)
same,GI50,[24],14.6 µM (inactive)
same,GI50,[25],10.4 µM (inactive)
same,GI50,[26],7.67 µM (inactive)
same,GI50,[27],12 µM (inactive)
same,GI50,[28],13.2 µM (inactive)
same,GI50,[29],14.8 µM (inactive)
same,GI50,[30],16.3 µM (inactive)
same,GI50,[31],9.66 µM (inactive)
same,GI50,[32],10.4 µM (inactive)
same,GI50,[33],4.04 µM (inactive)
same,GI50,[34],2.09 µM (inactive)
same,GI50,[35],8.91 µM (inactive)
same,GI50,[36],11.7 µM (inactive)
same,GI50,[37],11.7 µM (inactive)
same,GI50,[38],8.15 µM (inactive)
same,GI50,[39],22.6 µM (inactive)
same,GI50,[40],10.2 µM (inactive)
same,GI50,[41],> 100 µM (inactive)
same,GI50,[42],> 100 µM (inactive)
same,GI50,[43],7.23 µM (inactive)
same,GI50,[44],16.5 µM (inactive)
same,GI50,[45],10.5 µM (inactive)
same,GI50,[46],4.86 µM (inactive)
same,GI50,[47],13.3 µM (inactive)
same,GI50,[48],3.49 µM (inactive)
same,GI50,[49],1.34 µM (inactive)
same,GI50,[50],6.79 µM (inactive)
same,GI50,[51],2.85 µM (inactive)
same,GI50,[52],10.3 µM (inactive)
same,GI50,[53],11.1 µM (inactive)
